Source: the supplement of paper PMC10307832

Experiments:
Assay in all cases: relative viability (nuclei count vs DMSO), 5 days (fraction); higher = more cells survive
Alisertib = compound: COc1cc(Nc2ncc3c(n2)-c2ccc(Cl)cc2C(c2c(F)cccc2OC)=NC3)ccc1C(=O)O [Alisertib]
Procedure, shortened: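 Hoechst staining, done together with fixation and permeabilisation, marked nuclei for 4× imaging and MetaXpress counting. This followed 5 days without medium change after lung cancer cell lines, kept overnight at 37 °C in 1536-well plates, were pinned with five library-drug doses (not always all listed) spaced by √10 on vehicle-anchored plates. Viability is the ratio of treated-well to vehicle-well nuclei, expressed as a median across plates. Plates passed only at control CV below 25% with at least one doubling.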

Alisertib + Tozasertib = compound: COc1cc(Nc2ncc3c(n2)-c2ccc(Cl)cc2C(c2c(F)cccc2OC)=NC3)ccc1C(=O)O [Alisertib] + Cc1cc(Nc2cc(N3CCN(C)CC3)nc(Sc3ccc(NC(=O)C4CC4)cc3)n2)n[nH]1 [Tozasertib] (partner 0.1 µM)
Procedure, shortened: (§1)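 Medians of duplicate plates are given as relative viability. That measure is the nuclei count in treated wells divided by the count in vehicle wells. Counts were taken on 4× images of lung cancer cell lines in 1536-well plates, 5 days after pin-tool dosing the day after seeding with one drug alone or a fixed anchor-drug dose plus five library-drug doses (not always all listed) in √10 steps.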

Alisertib + Pemetrexed = compound: COc1cc(Nc2ncc3c(n2)-c2ccc(Cl)cc2C(c2c(F)cccc2OC)=NC3)ccc1C(=O)O [Alisertib] + Nc1nc2[nH]cc(CCc3ccc(C(=O)N[C@@H](CCC(=O)O)C(=O)O)cc3)c2c(=O)[nH]1 [Pemetrexed] (partner 0.2 µM)
Procedure, shortened: as §1

Alisertib + Palbociclib = compound: COc1cc(Nc2ncc3c(n2)-c2ccc(Cl)cc2C(c2c(F)cccc2OC)=NC3)ccc1C(=O)O [Alisertib] + CC(=O)c1c(C)c2cnc(Nc3ccc(N4CCNCC4)cn3)nc2n(C2CCCC2)c1=O [Palbociclib] (partner 0.5 µM)
Procedure, shortened: as §1

Alisertib + Dasatinib = compound: COc1cc(Nc2ncc3c(n2)-c2ccc(Cl)cc2C(c2c(F)cccc2OC)=NC3)ccc1C(=O)O [Alisertib] + Cc1nc(Nc2ncc(C(=O)Nc3c(C)cccc3Cl)s2)cc(N2CCN(CCO)CC2)n1 [Dasatinib] (partner 0.075 µM)
Procedure, shortened: as §1

Alisertib + Olaparib = compound: COc1cc(Nc2ncc3c(n2)-c2ccc(Cl)cc2C(c2c(F)cccc2OC)=NC3)ccc1C(=O)O [Alisertib] + O=C(c1cc(Cc2n[nH]c(=O)c3ccccc23)ccc1F)N1CCN(C(=O)C2CC2)CC1 [Olaparib] (partner 8 µM)
Procedure, shortened: as §1

Alisertib + Luminespib = compound: COc1cc(Nc2ncc3c(n2)-c2ccc(Cl)cc2C(c2c(F)cccc2OC)=NC3)ccc1C(=O)O [Alisertib] + CCNC(=O)c1noc(-c2cc(C(C)C)c(O)cc2O)c1-c1ccc(CN2CCOCC2)cc1 [Luminespib] (partner 0.01 µM)
Procedure, shortened: as §1

Alisertib + Decitabine = compound: COc1cc(Nc2ncc3c(n2)-c2ccc(Cl)cc2C(c2c(F)cccc2OC)=NC3)ccc1C(=O)O [Alisertib] + Nc1ncn([C@H]2C[C@H](O)[C@@H](CO)O2)c(=O)n1 [Decitabine] (partner 2 µM)
Procedure, shortened: as §1

Alisertib + OSI-027 = compound: COc1cc(Nc2ncc3c(n2)-c2ccc(Cl)cc2C(c2c(F)cccc2OC)=NC3)ccc1C(=O)O [Alisertib] + COc1cccc2cc(-c3nc([C@H]4CC[C@H](C(=O)O)CC4)n4ncnc(N)c34)[nH]c12 [OSI-027] (partner 0.5 µM)
Procedure, shortened: as §1

Alisertib + Phenformin = compound: COc1cc(Nc2ncc3c(n2)-c2ccc(Cl)cc2C(c2c(F)cccc2OC)=NC3)ccc1C(=O)O [Alisertib] + N=C(N)NC(=N)NCCc1ccccc1 [Phenformin] (partner 250 µM)
Procedure, shortened: as §1

Alisertib + AZD7762 = compound: COc1cc(Nc2ncc3c(n2)-c2ccc(Cl)cc2C(c2c(F)cccc2OC)=NC3)ccc1C(=O)O [Alisertib] + NC(=O)Nc1cc(-c2cccc(F)c2)sc1C(=O)N[C@H]1CCCNC1 [AZD7762] (partner 0.2 µM)
Procedure, shortened: as §1

Alisertib + Vorinostat = compound: COc1cc(Nc2ncc3c(n2)-c2ccc(Cl)cc2C(c2c(F)cccc2OC)=NC3)ccc1C(=O)O [Alisertib] + O=C(CCCCCCC(=O)Nc1ccccc1)NO [Vorinostat] (partner 1 µM)
Procedure, shortened: as §1

Alisertib + Trametinib = compound: COc1cc(Nc2ncc3c(n2)-c2ccc(Cl)cc2C(c2c(F)cccc2OC)=NC3)ccc1C(=O)O [Alisertib] + CC(=O)Nc1cccc(-n2c(=O)n(C3CC3)c(=O)c3c(Nc4ccc(I)cc4F)n(C)c(=O)c(C)c32)c1 [Trametinib] (partner 0.02 µM)
Procedure, shortened: as §1

Alisertib + Foretinib = compound: COc1cc(Nc2ncc3c(n2)-c2ccc(Cl)cc2C(c2c(F)cccc2OC)=NC3)ccc1C(=O)O [Alisertib] + COc1cc2c(Oc3ccc(NC(=O)C4(C(=O)Nc5ccc(F)cc5)CC4)cc3F)ccnc2cc1OCCCN1CCOCC1 [Foretinib] (partner 0.25 µM)
Procedure, shortened: as §1

NCI-H522
relative viability (Alisertib; 0.005 µM): 0.817 | relative viability (Alisertib; 0.01581 µM): 1.02 | relative viability (Alisertib; 0.05 µM): 0.696 | relative viability (Alisertib; 0.1581 µM): 0.515 | relative viability (Alisertib; 0.5 µM): 0.452 | relative viability (Alisertib + Tozasertib; first compound 0.005 µM): 0.543 | relative viability (Alisertib + Tozasertib; first compound 0.01581 µM): 0.565 | relative viability (Alisertib + Tozasertib; first compound 0.05 µM): 0.489 | relative viability (Alisertib + Tozasertib; first compound 0.1581 µM): 0.517 | relative viability (Alisertib + Tozasertib; first compound 0.5 µM): 0.439 | relative viability (Alisertib + Pemetrexed; first compound 0.005 µM): 0.743 | relative viability (Alisertib + Pemetrexed; first compound 0.01581 µM): 1.22 | relative viability (Alisertib + Pemetrexed; first compound 0.05 µM): 0.989 | relative viability (Alisertib + Pemetrexed; first compound 0.1581 µM): 0.637 | relative viability (Alisertib + Pemetrexed; first compound 0.5 µM): 0.516 | relative viability (Alisertib + Palbociclib; first compound 0.005 µM): 0.877 | relative viability (Alisertib + Palbociclib; first compound 0.01581 µM): 1.14 | relative viability (Alisertib + Palbociclib; first compound 0.05 µM): 0.975 | relative viability (Alisertib + Palbociclib; first compound 0.1581 µM): 0.76 | relative viability (Alisertib + Palbociclib; first compound 0.5 µM): 0.519 | relative viability (Alisertib + Dasatinib; first compound 0.005 µM): 0.812 | relative viability (Alisertib + Dasatinib; first compound 0.01581 µM): 0.91 | relative viability (Alisertib + Dasatinib; first compound 0.05 µM): 0.67 | relative viability (Alisertib + Dasatinib; first compound 0.1581 µM): 0.323 | relative viability (Alisertib + Dasatinib; first compound 0.5 µM): 0.434 | relative viability (Alisertib + Olaparib; first compound 0.005 µM): 0.604 | relative viability (Alisertib + Olaparib; first compound 0.01581 µM): 0.591 | relative viability (Alisertib + Olaparib; first compound 0.05 µM): 0.453 | relative viability (Alisertib + Olaparib; first compound 0.1581 µM): 0.452 | relative viability (Alisertib + Olaparib; first compound 0.5 µM): 0.437 | relative viability (Alisertib + Luminespib; first compound 0.005 µM): 1.2 | relative viability (Alisertib + Luminespib; first compound 0.01581 µM): 1 | relative viability (Alisertib + Luminespib; first compound 0.05 µM): 0.493 | relative viability (Alisertib + Luminespib; first compound 0.1581 µM): 0.331 | relative viability (Alisertib + Luminespib; first compound 0.5 µM): 0.426 | relative viability (Alisertib + Decitabine; first compound 0.005 µM): 0.69 | relative viability (Alisertib + Decitabine; first compound 0.01581 µM): 0.686 | relative viability (Alisertib + Decitabine; first compound 0.05 µM): 0.558 | relative viability (Alisertib + Decitabine; first compound 0.1581 µM): 0.443 | relative viability (Alisertib + Decitabine; first compound 0.5 µM): 0.408 | relative viability (Alisertib + OSI-027; first compound 0.005 µM): 0.684 | relative viability (Alisertib + OSI-027; first compound 0.01581 µM): 0.618 | relative viability (Alisertib + OSI-027; first compound 0.05 µM): 0.69 | relative viability (Alisertib + OSI-027; first compound 0.1581 µM): 0.532 | relative viability (Alisertib + OSI-027; first compound 0.5 µM): 0.433 | relative viability (Alisertib + Phenformin; first compound 0.005 µM): 0.521 | relative viability (Alisertib + Phenformin; first compound 0.01581 µM): 0.56 | relative viability (Alisertib + Phenformin; first compound 0.05 µM): 0.75 | relative viability (Alisertib + Phenformin; first compound 0.1581 µM): 0.419 | relative viability (Alisertib + Phenformin; first compound 0.5 µM): 0.493 | relative viability (Alisertib + AZD7762; first compound 0.005 µM): 0.818 | relative viability (Alisertib + AZD7762; first compound 0.01581 µM): 0.843 | relative viability (Alisertib + AZD7762; first compound 0.05 µM): 0.785 | relative viability (Alisertib + AZD7762; first compound 0.1581 µM): 0.406 | relative viability (Alisertib + AZD7762; first compound 0.5 µM): 0.411 | relative viability (Alisertib + Vorinostat; first compound 0.005 µM): 0.823 | relative viability (Alisertib + Vorinostat; first compound 0.01581 µM): 0.897 | relative viability (Alisertib + Vorinostat; first compound 0.05 µM): 0.822 | relative viability (Alisertib + Vorinostat; first compound 0.1581 µM): 0.521 | relative viability (Alisertib + Vorinostat; first compound 0.5 µM): 0.549 | relative viability (Alisertib + Trametinib; first compound 0.005 µM): 0.779 | relative viability (Alisertib + Trametinib; first compound 0.01581 µM): 0.777 | relative viability (Alisertib + Trametinib; first compound 0.05 µM): 0.728 | relative viability (Alisertib + Trametinib; first compound 0.1581 µM): 0.551 | relative viability (Alisertib + Trametinib; first compound 0.5 µM): 0.445

NCI-H1623
relative viability (Alisertib; 0.005 µM): 0.841 | relative viability (Alisertib; 0.01581 µM): 0.856 | relative viability (Alisertib; 0.05 µM): 0.656 | relative viability (Alisertib; 0.1581 µM): 0.4 | relative viability (Alisertib; 0.5 µM): 0.395 | relative viability (Alisertib + Tozasertib; first compound 0.005 µM): 0.37 | relative viability (Alisertib + Tozasertib; first compound 0.01581 µM): 0.398 | relative viability (Alisertib + Tozasertib; first compound 0.05 µM): 0.424 | relative viability (Alisertib + Tozasertib; first compound 0.1581 µM): 0.386 | relative viability (Alisertib + Tozasertib; first compound 0.5 µM): 0.425 | relative viability (Alisertib + Foretinib; first compound 0.005 µM): 0.884 | relative viability (Alisertib + Foretinib; first compound 0.01581 µM): 0.848 | relative viability (Alisertib + Foretinib; first compound 0.05 µM): 0.569 | relative viability (Alisertib + Foretinib; first compound 0.1581 µM): 0.425 | relative viability (Alisertib + Foretinib; first compound 0.5 µM): 0.424 | relative viability (Alisertib + Dasatinib; first compound 0.005 µM): 0.587 | relative viability (Alisertib + Dasatinib; first compound 0.01581 µM): 0.647 | relative viability (Alisertib + Dasatinib; first compound 0.05 µM): 0.573 | relative viability (Alisertib + Dasatinib; first compound 0.1581 µM): 0.344 | relative viability (Alisertib + Dasatinib; first compound 0.5 µM): 0.337 | relative viability (Alisertib + Luminespib; first compound 0.005 µM): 0.499 | relative viability (Alisertib + Luminespib; first compound 0.01581 µM): 0.496 | relative viability (Alisertib + Luminespib; first compound 0.05 µM): 0.385 | relative viability (Alisertib + Luminespib; first compound 0.1581 µM): 0.33 | relative viability (Alisertib + Luminespib; first compound 0.5 µM): 0.379 | relative viability (Alisertib + OSI-027; first compound 0.005 µM): 0.439 | relative viability (Alisertib + OSI-027; first compound 0.01581 µM): 0.439 | relative viability (Alisertib + OSI-027; first compound 0.05 µM): 0.398 | relative viability (Alisertib + OSI-027; first compound 0.1581 µM): 0.295 | relative viability (Alisertib + OSI-027; first compound 0.5 µM): 0.309 | relative viability (Alisertib + Phenformin; first compound 0.005 µM): 0.619 | relative viability (Alisertib + Phenformin; first compound 0.01581 µM): 0.592 | relative viability (Alisertib + Phenformin; first compound 0.05 µM): 0.501 | relative viability (Alisertib + Phenformin; first compound 0.1581 µM): 0.382 | relative viability (Alisertib + Phenformin; first compound 0.5 µM): 0.337
